Broadly, the solubility is how much of the substance goes into solution per volume.

Molecules are shown by their SMILES. ≈ marks a conversion by molar mass, not a printed value. Where two headings read alike, the source gives them in different places.

Experimental findings from patent publication US20260000668A1 (priority 2021, published 2026) are described below.

Series [1] relates to SARS-Related Coronavirus 2 Isolate USA-WA1/2020. The class given is cell-based, SARS-COV-2. The following applies: treatment 2 hours pre-infection; for Mean Log10 Reduction: Vero E6, MOI=0.1, 2 days, vs untreated control.

For `CN1CCN(CCCc2ccc(C(c3ccccc3)C34CC5CC(CC(C5)C3)C4)cc2)CC1` (stereo not drawn) [AV1066, 1-Methyl-4-[3-[4-(phenyltricyclo[3.3.1.1^3,7]dec-1-ylmethyl)phenyl]propyl]piperazine], the “Mean Log10 Reduction” value in series [1] (1 μM) is 0.00 Log10; in series [1] (2 μM), 0.10 Log10; in series [1] (4 μM) it was 1.33 Log10; in series [1] (8 μM) it was 4.89 Log10. In addition, the “antiviral activity against SARS-COV-2” value in series [1] (1-8 μM, Vero E6) is on record as “exhibited antiviral activity against SARS-COV-2 in a dose dependent manner”. Further, the solubility in the series “physchem” (organic solvent or mixture) is 21 mg/mL (≈ 47.4 mM); in “physchem” (water) it was 4 mg/mL (≈ 9.04 mM).
Turning to `CCC(CC)COC(=O)[C@H](C)N[P@](=O)(OC[C@H]1O[C@@](C#N)(c2ccc3c(N)ncnn23)[C@H](O)[C@@H]1O)Oc1ccccc1` [Remdesivir, reference compound], in series [1] (10 μM), the “Mean Log10 Reduction” value is 5.72 Log10. In addition, the solubility in the series “physchem” (organic solvent or mixture) was 100 mg/mL (≈ 166 mM).
